Read-outs that look alike come from different tables or passages of the source.
How the values were obtained:
A-549 = assay: cells; conditions: Homo sapiens, A549, 48 h
Summary of the method: (§1)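 Colorimetric SRB read (490 nm) on triplicate wells after 48 h at 37 °C, 5% CO2. Dose range 10 to 10^−8 μg/ml; 5×10^3 cells/well pre-attached 18 h.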

HT-29 = assay: cells; conditions: Homo sapiens, HT-29, 48 h
Summary of the method: as §1

LoVo = assay: cells; conditions: Homo sapiens, LoVo, 48 h
Summary of the method: as §1

DU-145 = assay: Inhibition of cells growth by colorimetric assay (SRB); conditions: Homo sapiens, DU-145, 48 h
Summary of the method: as §1

HeLa-APL = assay: as above; conditions: Homo sapiens, 48 h
Summary of the method: as §1

HeLa = assay: as above; conditions: Homo sapiens, HeLa, 48 h
Summary of the method: as §1

IGROV-1 = assay: as above; conditions: Homo sapiens, IGROV-1, 48 h
Summary of the method: as §1

IGROV-ET = assay: as above; conditions: Homo sapiens, 48 h
Summary of the method: as §1

K-562 = assay: as above; conditions: Homo sapiens, K562, 48 h
Summary of the method: as §1

LNCaP = assay: as above; conditions: Homo sapiens, LNCaP, 48 h
Summary of the method: as §1

LoVo-Dox = assay: as above; conditions: Homo sapiens, 48 h
Summary of the method: as §1

PANC-1 = assay: as above; conditions: Homo sapiens, PANC-1, 48 h
Summary of the method: as §1

SK-BR-3 = assay: as above; conditions: Homo sapiens, SK-BR-3, 48 h
Summary of the method: as §1

SK-MEL-28 = assay: as above; conditions: Homo sapiens, SK-MEL-28, 48 h
Summary of the method: as §1

`COc1cc2c(cc1O)CCN[C@]21CS[C@@H]2c3c(OC(=O)/C=C/c4ccccc4)c(C)c4c(c3[C@H](COC1=O)N1C2[C@@H]2N[C@@H](Cc3cc(C)c(OC)c(O)c32)[C@@H]1O)OCO4` (stereo partly drawn) [compound 53] showed a GI50 (A-549; read-out: A549 GI50) of 3.34 nM, a CC50 (A-549; read-out: A549 LC50) of 2210 nM and an IC (TGI) (A-549; read-out: A549 TGI) of 8.17 nM. For the same compound, the GI50 (HT-29; read-out: HT29 GI50) was 4.33 nM, the CC50 (HT-29; read-out: HT29 LC50) was 2740 nM and the IC (TGI) (HT-29; read-out: HT29 TGI) was 18.3 nM. For the same compound, the GI50 (LoVo; read-out: LOVO GI50) was 3.82 nM, the CC50 (LoVo; read-out: LOVO LC50) was 2940 nM and the IC (TGI) (LoVo; read-out: LOVO TGI) was 8.54 nM. The GI50 (DU-145; read-out: DU145 GI50) was 3.58 nM, the CC50 (DU-145; read-out: DU145 LC50) was 3040 nM and the IC (TGI) (DU-145; read-out: DU145 TGI) was 24.3 nM. For the same compound, the GI50 (HeLa-APL; read-out: HELA-APL GI50) was 2.99 nM, the CC50 (HeLa-APL; read-out: HELA-APL LC50) was 38.9 nM and the IC (TGI) (HeLa-APL; read-out: HELA-APL TGI) was 12.2 nM. For the same compound, the GI50 (HeLa; read-out: HELA GI50) was 3.12 nM, the CC50 (HeLa; read-out: HELA LC50) was 83.9 nM and the IC (TGI) (HeLa; read-out: HELA TGI) was 7.55 nM. For the same compound, the GI50 (IGROV-1; read-out: IGROV GI50) was 2.74 nM, the CC50 (IGROV-1; read-out: IGROV LC50) was 2740 nM and the IC (TGI) (IGROV-1; read-out: IGROV TGI) was 6.72 nM. It also gave a GI50 (IGROV-ET; read-out: IGROV-ET GI50) of 10.2 nM, a CC50 (IGROV-ET; read-out: IGROV-ET LC50) of 6450 nM and an IC (TGI) (IGROV-ET; read-out: IGROV-ET TGI) of 1400 nM. It also gave a GI50 (K-562; read-out: K562 GI50) of 1.54 nM, a CC50 (K-562; read-out: K562 LC50) of 583 nM and an IC (TGI) (K-562; read-out: K562 TGI) of 13 nM. It also gave a GI50 (LNCaP; read-out: LNCAP GI50) of 1.87 nM, a CC50 (LNCaP; read-out: LNCAP LC50) of 8.33 nM and an IC (TGI) (LNCaP; read-out: LNCAP TGI) of 3.95 nM. The GI50 (LoVo-Dox; read-out: LOVO-DOX GI50) was 57.9 nM, the CC50 (LoVo-Dox; read-out: LOVO-DOX LC50) was 5240 nM and the IC (TGI) (LoVo-Dox; read-out: LOVO-DOX TGI) was 1450 nM. It also gave a GI50 (PANC-1; read-out: PANC-1 GI50) of 3.36 nM, a CC50 (PANC-1; read-out: PANC-1 LC50) of 1440 nM and an IC (TGI) (PANC-1; read-out: PANC-1 TGI) of 10.1 nM. It also gave a GI50 (SK-BR-3; read-out: SK-BR3 GI50) of 2.95 nM, a CC50 (SK-BR-3; read-out: SK-BR3 LC50) of 1820 nM and an IC (TGI) (SK-BR-3; read-out: SK-BR3 TGI) of 29.9 nM. For the same compound, the GI50 (SK-MEL-28; read-out: MEL-28 GI50) was 2.21 nM, the CC50 (SK-MEL-28; read-out: MEL-28 LC50) was 7.2 nM and the IC (TGI) (SK-MEL-28; read-out: MEL-28 TGI) was 4 nM.
`C=CCOc1c(C)c2c(c3c1CC1[C@H]4c5c(cc(C)c(OC)c5O)C[C@@H]([C@H](C#N)N1[C@H]3CN)N4C)OCO2` (stereo partly drawn) [compound 1] gave a GI50 (A-549; read-out: GI50 A549) of 1530 nM, a CC50 (A-549; read-out: LC50 A549) of 19200 nM and an IC (TGI) (A-549; read-out: TGI A549) of 6070 nM. For the same compound, the GI50 (HT-29; read-out: GI50 HT29) was 1110 nM, the CC50 (HT-29; read-out: LC50 HT29) was 19200 nM and the IC (TGI) (HT-29; read-out: TGI HT29) was 19200 nM. The GI50 (LoVo; read-out: GI50 LOVO) was 932 nM, the CC50 (LoVo; read-out: LC50 LOVO) was 19200 nM and the IC (TGI) (LoVo; read-out: TGI LOVO) was 4000 nM. It also gave a GI50 (DU-145; read-out: GI50 DU145) of 567 nM, a CC50 (DU-145; read-out: LC50 DU145) of 1920 nM and an IC (TGI) (DU-145; read-out: TGI DU145) of 1070 nM. The GI50 (HeLa-APL; read-out: GI50 HELA-APL) was 717 nM, the CC50 (HeLa-APL; read-out: LC50 HELA-APL) was 7510 nM and the IC (TGI) (HeLa-APL; read-out: TGI HELA-APL) was 1630 nM. It also gave a GI50 (HeLa; read-out: GI50 HELA) of 1080 nM, a CC50 (HeLa; read-out: LC50 HELA) of 18100 nM and an IC (TGI) (HeLa; read-out: TGI HELA) of 2840 nM. For the same compound, the GI50 (IGROV-1; read-out: GI50 IGROV) was 901 nM, the CC50 (IGROV-1; read-out: LC50 IGROV) was 19200 nM and the IC (TGI) (IGROV-1; read-out: TGI IGROV) was 2590 nM. For the same compound, the GI50 (IGROV-ET; read-out: GI50 IGROV-ET) was 970 nM, the CC50 (IGROV-ET; read-out: LC50 IGROV-ET) was 19200 nM and the IC (TGI) (IGROV-ET; read-out: TGI IGROV-ET) was 19200 nM. It also gave a GI50 (K-562; read-out: GI50 K562) of 361 nM, a CC50 (K-562; read-out: LC50 K562) of 1770 nM and an IC (TGI) (K-562; read-out: TGI K562) of 799 nM. For the same compound, the GI50 (LNCaP; read-out: GI50 LNCAP) was 434 nM, the CC50 (LNCaP; read-out: LC50 LNCAP) was 1290 nM and the IC (TGI) (LNCaP; read-out: TGI LNCAP) was 747 nM. The GI50 (LoVo-Dox; read-out: GI50 LOVO-DOX) was 6170 nM, the CC50 (LoVo-Dox; read-out: LC50 LOVO-DOX) was 19200 nM and the IC (TGI) (LoVo-Dox; read-out: TGI LOVO-DOX) was 19200 nM. It also gave a GI50 (PANC-1; read-out: GI50 PANC-1) of 887 nM, a CC50 (PANC-1; read-out: LC50 PANC-1) of 19200 nM and an IC (TGI) (PANC-1; read-out: TGI PANC-1) of 4360 nM. The GI50 (SK-BR-3; read-out: GI50 SK-BR3) was 1010 nM, the CC50 (SK-BR-3; read-out: LC50 SK-BR3) was 19200 nM and the IC (TGI) (SK-BR-3; read-out: TGI SK-BR3) was 3960 nM. For the same compound, the GI50 (SK-MEL-28; read-out: GI50 MEL-28) was 561 nM, the CC50 (SK-MEL-28; read-out: LC50 MEL-28) was 6070 nM and the IC (TGI) (SK-MEL-28; read-out: TGI MEL-28) was 1150 nM.

From patent US7767659B2, “Synthesis of naturally occurring ecteinascidins and related compounds” (Pharma Mar, S.A., priority 2002, dated 2010)
